# Patent publication US20250082656A1, “DOSAGE REGIMENS FOR TREATMENT OF DENGUE INFECTION” (Atea Pharmaceuticals, Inc., priority 2022, published 2025)
# Columns and labels:
# DENV-3 [1] = assay: Antiviral assay with FC read-out, DENV-3; format: cell-based; details: Dengue virus, DENV3; DENV-3 CH4348, Huh-7, FC read-out
# Herpes simplex-1 = assay: Antiviral specificity panel, Herpes simplex-1; format: cell-based; details: DNA virus, Vero
# [2] = Pharmacokinetic study in SAD cohorts; format: in vivo, human; details: for CL renal: plasma and urine; for AUC(0-inf) / half-life / Cmax / Tmax / AUCInf / T1/2: human plasma; for dose proportionality of plasma exposure: dose range 250 to 1500 mg; for Urine Elimination: following single oral administration of Compound 2 at 250 to 1500 mg
# Protocol: Pharmacokinetic measurements for FIGS. 11, 12, 13, 14, and 15 were analyzed using LC-MS/MS according to the protocol described herein. Plasma samples were prepared for MS analysis by adding internal standards and extracting with 20 volumes chilled ACN. After vortex (800 rpm for 10 min) and centrifugation (4,000 rpm, 15 min, 4° C.), the supernatants (25 μL) were diluted with an equal volume of H2O, mixed and spun again. After adding internal standards, the PBMC samples (10^6 cells) were lyzed with 300 μL MeOH/H2O (70:30, v/v) and 40 mM dibutylammonium acetate (DBAA), mixed by vortex and centrifuged (12,000 rpm, 15 min, 4° C.). Aliquots of the supernatants (35 μL) were dried under nitrogen and reconstituted in H2O, then mixed and spun again. […] A binary nonlinear gradient with mobile phases A (0.1% formic acid in water) and B (0.1% formic acid in ACN) were used to elute samples at 0.8 mL/min, with a run time of 5 min. […] A binary nonlinear gradient with mobile phases A (0.001% NHr H2O, 0.18 mM DBAA in H2O) and B (10 mM N,N-dimethyl-hexylamine, 3 mM NH4OAc in ACN/H2O (50.50, v/v)) were used to elute samples at 0.5 mL/min, with a run time of 3 min. Standards in 50% MeOH were used for calibration. […] Internal standards (ISS) as described previously (Good et al., Preclinical evaluation of AT-527, a novel guanosine nucleotide prodrug with potent, pan-genotypic activity against hepatitis C virus. PLos One 15:e02271045) were used to correct for variations in recovery.
# Data analysis of the pharmacokinetic data generated according to Example 21 and presented in FIGS. 11, 12, 13, 14, and 15 was analyzed according to the procedure described herein. Plasma concentrations of Compound 1 (AT-281), Compound 3 (AT-551) and Compound 6 (AT-273) were subjected to non-compartmental pharmacokinetic analysis using Phoenix WinNonlin software (version 6.3 or above, Pharsight, Mountain View, CA). The linear/log trapezoidal rule was applied in obtaining the PK parameters.
# DENV-3 [3] = assay: microbe, parasite or virus in culture; details: Dengue virus, DENV3, Huh-7
# [4] = Plasma PK after single oral dose of AT-752, mice; details: Mouse, single oral AT-752 420 mg/kg
# DENV2 NS5MTase protein = DENV2 NS5MTase protein (Dengue virus type 2, UniProt P14340); assay: MTase activity filter-binding assay (FBA); format: biochemical; details: 30° C., 30 min, read-out: IC50 against the MTase domain
# DENV2 NS5MTase protein, sequence (P14340 2492-2787 limits assumed): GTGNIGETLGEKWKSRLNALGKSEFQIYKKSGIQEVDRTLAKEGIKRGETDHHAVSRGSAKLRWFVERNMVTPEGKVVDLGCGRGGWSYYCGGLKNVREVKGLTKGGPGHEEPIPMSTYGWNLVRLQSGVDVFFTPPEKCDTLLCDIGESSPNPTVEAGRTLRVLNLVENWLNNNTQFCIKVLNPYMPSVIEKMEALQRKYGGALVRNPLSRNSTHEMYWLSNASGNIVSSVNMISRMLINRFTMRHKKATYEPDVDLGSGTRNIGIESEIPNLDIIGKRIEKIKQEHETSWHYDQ
# Protocol: A) Dose-response determination using a filter binding assay (FBA). Reactions were incubated at 30° C. during 30 min and the enzymatic activity was determined using FBA as described in Example 33. […] Interacting residues are labelled and shown as sticks. E) Structural comparison of the position of a GTP (pink) and AT9010 (light brown) bound in the Cap binding site. Cap binding site structures belong to DENV2 (in pink—PDB 2P1D)) and DENV3 (in light brown) MTases and are conserved.
# The transfer of tritiated methyl from [3H]-SAM onto RNA substrate was monitored by filter-binding assay (FBA), performed according to the method described previously (Paesen et al., 2015). […] FBA was carried out in reaction mixture [40 mM Tris-HCl (pH 8.0), 1 mM DTT, 2 μM SAM and 0.1 μM 3H-SAM (Perkin Elmer)] in the presence of 0.7 μM mGpppAC4 synthetic RNA and DENV2 NS5MTase protein (500 nM). The enzyme was first mixed with the compound (0.5 to 1000 μM) suspended in water before the addition of RNA substrate and SAM and then incubated at 30° C. Reaction mixtures were stopped after 30 min by their 10-fold dilution in ice-cold water. […] They were soaked with scintillation fluid (Perkin Elmer), and 3H-methyl transfer to the RNA substrates was determined using a Wallac MicroBeta TriLux Liquid Scintillation Counter (Perkin Elmer). […]
# [5] = In vivo formation of AT-9010 in PBMCs, mice
# [6] = both sexes, human, plasma, po, 250 mg, single oral Compound 2 250 mg, fasting
# [7] = both sexes, human, plasma, po, 500 mg, single oral Compound 2 500 mg, fasting
# [8] = both sexes, human, plasma, po, 500 mg, single oral Compound 2 500 mg, fed
# [9] = both sexes, human, plasma, po, 1000 mg, single oral Compound 2 1000 mg, South/Southeast/East Asian origin
# [10] = both sexes, human, plasma, po, 1000 mg, single oral Compound 2 1000 mg, fasting
# [11] = both sexes, human, plasma, po, 1500 mg, single oral Compound 2 1500 mg, fasting
# [12] = single oral Compound 2 250 mg, fasting
# [13] = single oral Compound 2 500 mg, fasting
# [14] = single oral Compound 2 500 mg, fed
# [15] = single oral Compound 2 1000 mg, South/Southeast/East Asian origin
# [16] = single oral Compound 2 1000 mg, fasting
# [17] = single oral Compound 2 1500 mg, fasting
compound,measurement,setting,value
"CNc1nc(N)nc2c1ncn2[C@@H]1O[C@H](CO[P@](=O)(N[C@@H](C)C(=O)OC(C)C)Oc2ccccc2)[C@@H](O)[C@@]1(C)F [Compound 1, isopropyl ((R)-(((2R,3R,4R,5R)-5-(2-amino-6-(methylamino)-9H-purin-9-yl)-4-fluoro-3-hydroxy-4-methyltetrahydrofuran-2-yl)methoxy)(phenoxy)phosphoryl)-L-alaninate]",EC50,DENV-3 [1],1.33 µM
same,EC50,Herpes simplex-1,> 100 µM
same,CL renal,"[2]; both sexes, human, po, 250 mg, single oral Compound 2 250 mg, fasting",125 mL/min
same,CL renal,"[2]; both sexes, human, po, 500 mg, single oral Compound 2 500 mg, fasting",182 mL/min
same,CL renal,"[2]; both sexes, human, po, 500 mg, single oral Compound 2 500 mg, fed",110 mL/min
same,CL renal,"[2]; both sexes, human, po, 1000 mg, single oral Compound 2 1000 mg, South/Southeast/East Asian origin",162 mL/min
same,CL renal,"[2]; both sexes, human, po, 1000 mg, single oral Compound 2 1000 mg, fasting",190 mL/min
same,CL renal,"[2]; both sexes, human, po, 1500 mg, single oral Compound 2 1500 mg, fasting",138 mL/min
same,AUC(0-inf),[2]; [6],347 ± 64 ng·h/mL
same,half-life,[2]; [6],30 ± 6 min
same,Cmax,"[2]; both sexes, human, plasma, po, 250 mg, single oral Compound 2 250 mg, fasting, read-out: Cmax",482 ± 131 ng/mL
same,Tmax,"[2]; both sexes, human, plasma, po, 250 mg, single oral Compound 2 250 mg, fasting, read-out: Tmax",30 min
same,AUC(0-inf),[2]; [7],1110 ± 687 ng·h/mL
same,half-life,[2]; [7],30 ± 60 min
same,Cmax,"[2]; both sexes, human, plasma, po, 500 mg, single oral Compound 2 500 mg, fasting, read-out: Cmax",1230 ± 1110 ng/mL
same,Tmax,"[2]; both sexes, human, plasma, po, 500 mg, single oral Compound 2 500 mg, fasting, read-out: Tmax",30 min
same,AUC(0-inf),[2]; [8],980 ± 716 ng·h/mL
same,half-life,[2]; [8],42 ± 18 min
same,Cmax,"[2]; both sexes, human, plasma, po, 500 mg, single oral Compound 2 500 mg, fed (high-fat/high-calorie meal), read-out: Cmax",488 ± 303 ng/mL
same,Tmax,"[2]; both sexes, human, plasma, po, 500 mg, single oral Compound 2 500 mg, fed, read-out: Tmax",120 min
same,AUC(0-inf),[2]; [9],2730 ± 944 ng·h/mL
same,half-life,[2]; [9],30 ± 6 min
same,Tmax,"[2]; both sexes, human, plasma, po, 1000 mg, single oral Compound 2 1000 mg, South/Southeast/East Asian origin, read-out: Tmax",30 min
same,AUC(0-inf),[2]; [10],1920 ± 508 ng·h/mL
same,half-life,[2]; [10],30 ± 6 min
same,Cmax,"[2]; both sexes, human, plasma, po, 1000 mg, single oral Compound 2 1000 mg, fasting, read-out: Cmax",3040 ± 960 ng/mL
same,Tmax,"[2]; both sexes, human, plasma, po, 1000 mg, single oral Compound 2 1000 mg, fasting, read-out: Tmax",30 min
same,Cmax,"[2]; both sexes, human, plasma, po, 1000 mg, single oral Compound 2 1000 mg, patients of South/Southeast/East Asian origin, read-out: Cmax",3670 ± 1260 ng/mL
same,AUC(0-inf),[2]; [11],4630 ± 1500 ng·h/mL
same,half-life,[2]; [11],36 ± 12 min
same,Cmax,"[2]; both sexes, human, plasma, po, 1500 mg, single oral Compound 2 1500 mg, fasting, read-out: Cmax",5050 ± 2080 ng/mL
same,Tmax,"[2]; both sexes, human, plasma, po, 1500 mg, single oral Compound 2 1500 mg, fasting, read-out: Tmax",30 min
same,dose proportionality of plasma exposure,[2],greater than dose-proportional manner
same,Urine Elimination,[2],< 3%
same,EC50,DENV-3 [3],0.75 µM
same,AUC0-24 h,[4],4.2 ± 0.5 µM·h
same,Cmax,[4],2600 ± 300 nM
same,Tmax,[4],48 ± 18 min
C[C@@]1(F)[C@H](O)[C@@H](COP(=O)(O)OP(=O)(O)OP(=O)(O)O)O[C@H]1n1cnc2c(=O)[nH]c(N)nc21 [Compound 5],IC50,DENV2 NS5MTase protein,29.6 µM
same,concentration of AT-9010 in PBMCs,"[5]; loading dose 500 mg/kg then 250 mg/kg 4 h later, 4 h after the second dose",0.297 pmol/10^6 cells
same,concentration of AT-9010 in PBMCs,"[5]; loading dose 500 mg/kg then 250 mg/kg 4 h later, 12 h after the second dose",0.322 pmol/10^6 cells
same,concentration of AT-9010 in PBMCs,"[5]; single oral dose 50 mg/kg, 12 h",0.092 pmol/10^6 cells
"C[C@@]1(F)[C@H](O)[C@@H](CO)O[C@H]1n1cnc2c(=O)[nH]c(N)nc21 [Compound 6, 2′-fluoro-2′-C-methylguanosine]",dose proportionality of plasma exposure,[2],slightly less than dose-proportional
same,Urine Elimination,[2],6.7-8.8%
same,AUCInf,[2]; [12],1440 ± 280 ng·h/mL
same,Cmax,[2]; [12],91 ± 19 ng/mL
same,T1/2,[2]; [12],1150 ± 612 min
same,Tmax,[2]; [12],6.0 (3.0-6.0) h
same,AUCInf,[2]; [13],2390 ± 478 ng·h/mL
same,Cmax,[2]; [13],135 ± 25 ng/mL
same,T1/2,[2]; [13],834 ± 354 min
same,Tmax,[2]; [13],4.0 (3.0-8.0) h
same,AUCInf,[2]; [14],2990 ± 558 ng·h/mL
same,T1/2,[2]; [14],1040 ± 660 min
same,Tmax,[2]; [14],6.0 (6.0-8.1) h
same,Cmax,"[2]; single oral Compound 2 500 mg, fed (high-fat/high-calorie meal)",175 ± 29 ng/mL
same,AUCInf,[2]; [15],3830 ± 519 ng·h/mL
same,T1/2,[2]; [15],978 ± 180 min
same,Tmax,[2]; [15],5.0 (3.1-6.0) h
same,AUCInf,[2]; [16],4350 ± 1520 ng·h/mL
same,Cmax,[2]; [16],241 ± 71 ng/mL
same,T1/2,[2]; [16],1570 ± 732 min
same,Tmax,[2]; [16],4.1 (4.0-6.3) h
same,Cmax,"[2]; single oral Compound 2 1000 mg, patients of South/Southeast/East Asian origin",240 ± 46 ng/mL
same,AUCInf,[2]; [17],5460 ± 1190 ng·h/mL
same,Cmax,[2]; [17],283 ± 32 ng/mL
same,T1/2,[2]; [17],1300 ± 372 min
same,Tmax,[2]; [17],6.0 (3.2-6.1) h
same,CLR,"[2]; human, single oral Compound 2 250 mg, fasting",15.8 ± 2.8 L/h
same,CLR,"[2]; human, single oral Compound 2 500 mg, fasting",16.8 ± 7.6 L/h
same,CLR,"[2]; human, single oral Compound 2 500 mg, fed",13.4 ± 3.3 L/h
same,CLR,"[2]; human, single oral Compound 2 1000 mg, South/Southeast/East Asian origin",18.7 ± 2.1 L/h
same,CLR,"[2]; human, single oral Compound 2 1000 mg, fasting",17.1 ± 6.5 L/h
same,CLR,"[2]; human, single oral Compound 2 1500 mg, fasting",19.5 ± 4.1 L/h
same,AUC0-24 h,[4],18.8 ± 6.0 µM·h
same,Cmax,[4],2300 ± 700 nM
